Each molecule was assayed against ROMK (Kir1.1) channel (Homo sapiens (Human), UniProt P48048) (assay: Thallium Flux Assay).
Format: cell-based
Protocol: The following Thallium Flux Assay was performed on each of the final product compounds in the Examples.
A Thallium Flux Assay was performed on the compounds of the Examples. This assay has been described previously; see, e.g., PCT Published Application WO 2013/062900.

Chain of ROMK (Kir1.1) channel (P48048 whole entry): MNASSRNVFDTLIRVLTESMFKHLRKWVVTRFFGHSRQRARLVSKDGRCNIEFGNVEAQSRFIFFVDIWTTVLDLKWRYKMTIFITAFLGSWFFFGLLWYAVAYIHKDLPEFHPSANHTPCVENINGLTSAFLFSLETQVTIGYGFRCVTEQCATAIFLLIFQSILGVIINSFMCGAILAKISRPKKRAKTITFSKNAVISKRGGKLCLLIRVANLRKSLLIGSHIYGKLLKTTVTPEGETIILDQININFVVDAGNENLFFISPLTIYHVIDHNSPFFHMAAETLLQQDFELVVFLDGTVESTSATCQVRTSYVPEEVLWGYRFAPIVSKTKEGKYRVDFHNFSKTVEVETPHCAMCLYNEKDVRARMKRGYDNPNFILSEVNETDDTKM

| IC50 [nM] | Structure (SMILES) |
| --- | --- |
| 18 | CC1=C(N2CCC3(CCN(C(CO)c4ccc5c(ccc6nnnn65)c4)CC3)C2=O)COC1=O (racemic) [Example 28, 8-(2-hydroxy-1-(tetrazolo[1,5-a]quinolin-7-yl)ethyl)-2-(4-methyl-5-oxo-2,5-dihydrofuran-3-yl)-2,8-diazaspiro[4.5]decan-1-one] |
| 31 | CC1=C(N2CCC3(CCN(C[C@H](O)c4ccc5c(c4Cl)Cn4nnnc4-5)CC3)C2=O)COC1=O [Example 1, (R)-8-(2-(6-chloro-5H-tetrazolo[5,1-a]isoindol-7-yl)-2-hydroxyethyl)-2-(4-methyl-5-oxo-2,5-dihydrofuran-3-yl)-2,8-diazaspiro[4.5]decan-1-one] |
| 9 | CC1=C(N2CCC3(CCN(C[C@@H](O)c4ccc5c(c4Cl)Cn4nnnc4-5)CC3)C2=O)COC1=O [Example 2, (S)-8-(2-(6-chloro-5H-tetrazolo[5,1-a]isoindol-7-yl)-2-hydroxyethyl)-2-(4-methyl-5-oxo-2,5-dihydrofuran-3-yl)-2,8-diazaspiro[4.5]decan-1-one] |
| 35 | CC1=C(N2CC[C@@]3(CCN(C[C@H](O)c4ccc5c(c4)Cn4nnnc4-5)C[C@@H]3F)C2=O)COC1=O [Example 3, (5S,6R)-6-fluoro-8-((R)-2-hydroxy-2-(5H-tetrazolo[5,1-a]isoindol-7-yl)ethyl)-2-(4-methyl-5-oxo-2,5-dihydrofuran-3-yl)-2,8-diazaspiro[4.5]decan-1-one] |
| 43 | CC1=C(N2CC[C@]3(CCN(C[C@H](O)c4ccc5c(c4)Cn4nnnc4-5)C[C@H]3F)C2=O)COC1=O [Example 4, (5R,6S)-6-fluoro-8-((R)-2-hydroxy-2-(5H-tetrazolo[5,1-a]isoindol-7-yl)ethyl)-2-(4-methyl-5-oxo-2,5-dihydrofuran-3-yl)-2,8-diazaspiro[4.5]decan-1-one] |
| 111 | CC1=C(N2CC[C@@]3(CCN(C[C@@H](O)c4ccc5c(c4)Cn4nnnc4-5)C[C@@H]3F)C2=O)COC1=O [Example 5, (5S,6R)-6-fluoro-8-((S)-2-hydroxy-2-(5H-tetrazolo[5,1-a]isoindol-7-yl)ethyl)-2-(4-methyl-5-oxo-2,5-dihydrofuran-3-yl)-2,8-diazaspiro[4.5]decan-1-one] |
| 40 | CC1=C(N2CC[C@]3(CCN(C[C@@H](O)c4ccc5c(c4)Cn4nnnc4-5)C[C@H]3F)C2=O)COC1=O [Example 6, (5R,6S)-6-fluoro-8-((S)-2-hydroxy-2-(5H-tetrazolo[5,1-a]isoindol-7-yl)ethyl)-2-(4-methyl-5-oxo-2,5-dihydrofuran-3-yl)-2,8-diazaspiro[4.5]decan-1-one] |
| 34 | CC1=C(N2CCC3(CCN(C[C@H](O)c4ccc5c(c4)CCc4nnnn4-5)CC3)C2=O)COC1=O [Example 7A, (R)-8-(2-(4,5-dihydrotetrazolo[1,5-a]quinolin-7-yl)-2-hydroxyethyl)-2-(4-methyl-5-oxo-2,5-dihydrofuran-3-yl)-2,8-diazaspiro[4.5]decan-1-one] |
| 38 | CC1=C(N2CCC3(CCN(C[C@@H](O)c4ccc5c(c4)CCc4nnnn4-5)CC3)C2=O)COC1=O [Example 7B, (S)-8-(2-(4,5-dihydrotetrazolo[1,5-a]quinolin-7-yl)-2-hydroxyethyl)-2-(4-methyl-5-oxo-2,5-dihydrofuran-3-yl)-2,8-diazaspiro[4.5]decan-1-one] |
| 13 | CC1=C(N2CCC3(CCN(C[C@H](O)c4ccc5c(c4)Cn4nnnc4-5)CC3)C2=O)COC1=O [Example 8, (R)-8-(2-hydroxy-2-(5H-tetrazolo[5,1-a]isoindol-7-yl)ethyl)-2-(4-methyl-5-oxo-2,5-dihydrofuran-3-yl)-2,8-diazaspiro[4.5]decan-1-one] |
| 19 | CC1=C(N2CCC3(CCN(C[C@@H](O)c4ccc5c(c4)Cn4nnnc4-5)CC3)C2=O)COC1=O [Example 9, (S)-8-(2-hydroxy-2-(5H-tetrazolo[5,1-a]isoindol-7-yl)ethyl)-2-(4-methyl-5-oxo-2,5-dihydrofuran-3-yl)-2,8-diazaspiro[4.5]decan-1-one] |
| 46 | CC1=C(N2CCC3(CCN(C[C@H](O)c4ccc5c(c4C)CCc4nnnn4-5)CC3)C2=O)COC1=O [Example 10, (R)-8-(2-hydroxy-2-(6-methyl-4,5-dihydrotetrazolo[1,5-a]quinolin-7-yl)ethyl)-2-(4-methyl-5-oxo-2,5-dihydrofuran-3-yl)-2,8-diazaspiro[4.5]decan-1-one] |
| 47 | CC1=C(N2CCC3(CCN(C[C@@H](O)c4ccc5c(c4C)CCc4nnnn4-5)CC3)C2=O)COC1=O [Example 11, (S)-8-(2-hydroxy-2-(6-methyl-4,5-dihydrotetrazolo[1,5-a]quinolin-7-yl)ethyl)-2-(4-methyl-5-oxo-2,5-dihydrofuran-3-yl)-2,8-diazaspiro[4.5]decan-1-one] |
| 188 | C[C@@H]1CC2(CCN(C[C@H](O)c3ccc4c(c3)CCc3nnnn3-4)CC2)C(=O)N1C1=CC(=O)OC1 [Example 12, (R)-8-((R)-2-(4,5-dihydrotetrazolo[1,5-a]quinolin-7-yl)-2-hydroxyethyl)-3-methyl-2-(5-oxo-2,5-dihydrofuran-3-yl)-2,8-diazaspiro[4.5]decan-1-one] |
| 23 | C[C@H]1CC2(CCN(C[C@H](O)c3ccc4c(c3)CCc3nnnn3-4)CC2)C(=O)N1C1=CC(=O)OC1 [Example 13, (S)-8-((R)-2-(4,5-dihydrotetrazolo[1,5-a]quinolin-7-yl)-2-hydroxyethyl)-3-methyl-2-(5-oxo-2,5-dihydrofuran-3-yl)-2,8-diazaspiro[4.5]decan-1-one] |
| 284 | C[C@@H]1CC2(CCN(C[C@@H](O)c3ccc4c(c3)CCc3nnnn3-4)CC2)C(=O)N1C1=CC(=O)OC1 [Example 14, (R)-8-((S)-2-(4,5-dihydrotetrazolo[1,5-a]quinolin-7-yl)-2-hydroxyethyl)-3-methyl-2-(5-oxo-2,5-dihydrofuran-3-yl)-2,8-diazaspiro[4.5]decan-1-one] |
| 14 | C[C@H]1CC2(CCN(C[C@@H](O)c3ccc4c(c3)CCc3nnnn3-4)CC2)C(=O)N1C1=CC(=O)OC1 [Example 15, (S)-8-((S)-2-(4,5-dihydrotetrazolo[1,5-a]quinolin-7-yl)-2-hydroxyethyl)-3-methyl-2-(5-oxo-2,5-dihydrofuran-3-yl)-2,8-diazaspiro[4.5]decan-1-one] |
| 32 | C[C@@H]1CC2(CCN(C[C@H](O)c3ccc4c(ccc5nnnn54)c3)CC2)C(=O)N1C1=CC(=O)OC1 [Example 16, (R)-8-((R)-2-hydroxy-2-(tetrazolo[1,5-a]quinolin-7-yl)ethyl)-3-methyl-2-(5-oxo-2,5-dihydrofuran-3-yl)-2,8-diazaspiro[4.5]decan-1-one] |
| 20 | C[C@H]1CC2(CCN(C[C@H](O)c3ccc4c(ccc5nnnn54)c3)CC2)C(=O)N1C1=CC(=O)OC1 [Example 17, (S)-8-((R)-2-hydroxy-2-(tetrazolo[1,5-a]quinolin-7-yl)ethyl)-3-methyl-2-(5-oxo-2,5-dihydrofuran-3-yl)-2,8-diazaspiro[4.5]decan-1-one] |
| 7 | C[C@@H]1CC2(CCN(C[C@@H](O)c3ccc4c(ccc5nnnn54)c3)CC2)C(=O)N1C1=CC(=O)OC1 [Example 18, (R)-8-((S)-2-hydroxy-2-(tetrazolo[1,5-a]quinolin-7-yl)ethyl)-3-methyl-2-(5-oxo-2,5-dihydrofuran-3-yl)-2,8-diazaspiro[4.5]decan-1-one] |
| 10 | C[C@H]1CC2(CCN(C[C@@H](O)c3ccc4c(ccc5nnnn54)c3)CC2)C(=O)N1C1=CC(=O)OC1 [Example 19, (S)-8-((S)-2-hydroxy-2-(tetrazolo[1,5-a]quinolin-7-yl)ethyl)-3-methyl-2-(5-oxo-2,5-dihydrofuran-3-yl)-2,8-diazaspiro[4.5]decan-1-one] |
| 11 | CC1=C(N2CCC3(CCN(C[C@H](O)c4ccc5c(ccc6nnnn65)c4)CC3)C2=O)COC1=O [Example 20, (R)-8-(2-hydroxy-2-(tetrazolo[1,5-a]quinolin-7-yl)ethyl)-2-(4-methyl-5-oxo-2,5-dihydrofuran-3-yl)-2,8-diazaspiro[4.5]decan-1-one] |
| 19 | CC1=C(N2CCC3(CCN(C[C@@H](O)c4ccc5c(ccc6nnnn65)c4)CC3)C2=O)COC1=O [Example 21, (S)-8-(2-hydroxy-2-(tetrazolo[1,5-a]quinolin-7-yl)ethyl)-2-(4-methyl-5-oxo-2,5-dihydrofuran-3-yl)-2,8-diazaspiro[4.5]decan-1-one] |
| 185 | CC1=C(N2CCC3(CCN(C[C@@H](O)c4ccc5c(ccc6nnnn65)n4)CC3)C2=O)COC1=O [Example 22, (R)-8-(2-hydroxy-2-(tetrazolo[1,5-a][1,5]naphthyridin-7-yl)ethyl)-2-(4-methyl-5-oxo-2,5-dihydrofuran-3-yl)-2,8-diazaspiro[4.5]decan-1-one] |
| 17 | CC1=C(N2CCC3(CCN(C[C@H](O)c4ccc5c(c4C)Cn4nnnc4-5)CC3)C2=O)COC1=O [Example 23, (R)-8-(2-hydroxy-2-(6-methyl-5H-tetrazolo[5,1-a]isoindol-7-yl)ethyl)-2-(4-methyl-5-oxo-2,5-dihydrofuran-3-yl)-2,8-diazaspiro[4.5]decan-1-one] |
| 16 | CC1=C(N2CCC3(CCN(C[C@@H](O)c4ccc5c(c4C)Cn4nnnc4-5)CC3)C2=O)COC1=O [Example 24, (S)-8-(2-hydroxy-2-(6-methyl-5H-tetrazolo[5,1-a]isoindol-7-yl)ethyl)-2-(4-methyl-5-oxo-2,5-dihydrofuran-3-yl)-2,8-diazaspiro[4.5]decan-1-one] |
| 128 | CC1=C(N2CCC3(CCN(C[C@H](O)c4cc5c(cc4C4CC4)-c4nnnn4C5)CC3)C2=O)COC1=O [Example 25, (R)-8-(2-(8-cyclopropyl-5H-tetrazolo[5,1-a]isoindol-7-yl)-2-hydroxyethyl)-2-(4-methyl-5-oxo-2,5-dihydrofuran-3-yl)-2,8-diazaspiro[4.5]decan-1-one] |
| 82 | CC1=C(N2CCC3(CCN(C[C@@H](O)c4cc5c(cc4C4CC4)-c4nnnn4C5)CC3)C2=O)COC1=O [Example 26, (S)-8-(2-(8-cyclopropyl-5H-tetrazolo[5,1-a]isoindol-7-yl)-2-hydroxyethyl)-2-(4-methyl-5-oxo-2,5-dihydrofuran-3-yl)-2,8-diazaspiro[4.5]decan-1-one] |

From US10208064B2, “Inhibitors of the renal outer medullary potassium channel” (MERCK SHARP & DOHME CORP., priority 2014, dated 2019)
